What was measured:
[1] = target: T1, TrkA (Homo sapiens, UniProt P04629); experiment: TrkA tyrosine kinase inhibition assay (recombinant enzyme, polyGluTyr phosphorylation, 33P); assay type: biochemical; conditions: kinase domain of human TrkA, substrate PGT 0.1 mg/ml, 30 uM ATP, 1 hour at 30° C.
T1 construct: The kinase domain of the human TrkA receptor is expressed in Sf9 insect cells as a histidine (His)-fusion protein; His; made in house; host or cells: Sf9 insect cells (baculovirus)
Description: The ability of compounds of the invention to inhibit tyrosine kinase activity of TrkA may be measured using a recombinant enzyme in an assay that measures the ability of compounds to inhibit the phosphorylation of the exogenous substrate, polyGluTyr (PGT, 4:1). The kinase domain of the human TrkA receptor is expressed in Sf9 insect cells as a histidine (His)-fusion protein using a baculovirus expression system. The protein is purified from the lysates of these cells using an Ni-NTA affinity column. After the recombinant enzyme is purified, it is activated by incubation with cold ATP. The enzyme assay is performed in a 96-well plate. Test compounds are first dissolved in dimethylsulfoxide (DMSO) and then serially-diluted in a 96-well plate. The serially-diluted compounds are transferred to the 96-well assay plate so that the final concentration of DMSO in the enzyme assay is 1.64%. All assay components are diluted in phosphorylation buffer (20 mm MOPS, 10 mM MgCl2, 1 mM EDTA, 0.015% Brij-35, 0.1 mg/ml BSA, 0.0025% Beta-Mercaptoethanol). The recombinant enzyme is added to the assay plate containing test compound and the reaction is initiated with a substrate solution containing a final concentration of 0.1 mg/ml PGT, 30 uM ATP, and 0.008mCi/ml ^33P-gammaATP (3000Ci/mmol). After a 1 hour incubation at 30° C., the reaction is terminated with 10% TCA and incubated at 4° C. for 1 hour. The reaction is filtered onto a Unifilter® GF/C™ filter plate that has been presoaked with 0.1M NaPyrophosphate. Microscint-20 is then added to the dried filter plate and the captured ^33P-phosphorylated PGT is quantitated on a microscintillation plate counter (TopCount•NXT™). Inhibition of the kinase enzymatic activity by the test compound is detected by a reduction in scintillation, and the concentration of compound that is required to inhibit the signal by 50% is reported as the IC50 value for the test compound.

[2] = target: T2, TrkB (Homo sapiens, UniProt Q16620); experiment: TrkB tyrosine kinase inhibition assay (recombinant enzyme, polyGluTyr phosphorylation, 33P); assay type: biochemical; conditions: kinase domain of human TrkB (amino acids 526-838), substrate PGT 0.1 mg/ml, 30 uM ATP, 1 hour at 30° C.
T2 construct: The kinase domain of the human TrkB receptor (amino acids 526-838); His; purchased Invitrogen; host or cells: insect cells
T2 sequence (Q16620 510-822): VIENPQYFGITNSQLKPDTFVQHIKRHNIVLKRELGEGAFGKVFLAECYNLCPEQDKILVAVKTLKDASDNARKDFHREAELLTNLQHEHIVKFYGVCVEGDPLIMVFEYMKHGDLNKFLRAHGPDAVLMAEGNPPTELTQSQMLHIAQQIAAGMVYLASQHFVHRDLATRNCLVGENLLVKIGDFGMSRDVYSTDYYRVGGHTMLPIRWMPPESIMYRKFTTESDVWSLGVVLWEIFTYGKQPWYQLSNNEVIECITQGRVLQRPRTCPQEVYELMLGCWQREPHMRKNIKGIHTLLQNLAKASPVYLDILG
Description: The ability of compounds of the invention to inhibit tyrosine kinase activity of TrkB may be measured using a recombinant enzyme in an assay that measures the ability of compounds to inhibit the phosphorylation of the exogenous substrate, polyGluTyr (PGT, 4:1). The kinase domain of the human TrkB receptor (amino acids 526-838) is expressed in insect cells as a histidine (His)-fusion protein and is commercially available from Invitrogen™. The enzyme assay is performed in a 96-well plate. Test compounds are first dissolved in dimethylsulfoxide (DMSO) and then serially-diluted in a 96-well plate. The serially-diluted compounds are transferred to the 96-well assay plate so that the final concentration of DMSO in the enzyme assay is 1.64%. All assay components are diluted in phosphorylation buffer (20 mm MOPS, 10 mM MgCl2, 1 mM EDTA, 0.015% Brij-35, 0.1 mg/ml BSA, 0.0025% Beta-Mercaptoethanol). The recombinant enzyme is added to the assay plate containing test compound and the reaction is initiated with a substrate solution containing a final concentration of 0.1 mg/ml PGT, 30 uM ATP, and 0.008mCi/ml ^33P-gammaATP (3000 Ci/mmol). After a 1 hour incubation at 30° C., the reaction is terminated with 10% TCA and incubated at 4° C. for 1 hour. The reaction is filtered onto a Unifilter® GF/C™ filter plate that has been pre-soaked with 0.1M NaPyrophosphate. Microscint-20 is then added to the dried filter plate and the captured ^33P-phosphorylated PGT is quantitated on a microscintillation plate counter (TopCount•NXT™). Inhibition of the kinase enzymatic activity by the test compound is detected by a reduction in scintillation, and the concentration of compound that is required to inhibit the signal by 50% is reported as the IC50 value for the test compound.

T1 sequence (P04629 510-781 limits assumed): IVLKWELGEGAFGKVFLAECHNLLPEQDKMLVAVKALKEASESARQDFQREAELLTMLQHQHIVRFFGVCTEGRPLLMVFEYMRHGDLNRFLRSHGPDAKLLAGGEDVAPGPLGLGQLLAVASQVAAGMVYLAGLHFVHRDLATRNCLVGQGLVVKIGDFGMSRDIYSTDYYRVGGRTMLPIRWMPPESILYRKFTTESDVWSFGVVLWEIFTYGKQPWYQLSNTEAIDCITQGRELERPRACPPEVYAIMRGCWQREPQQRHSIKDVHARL

| SMILES | IC50 [1] [nM] | IC50 [2] [nM] |
| --- | --- | --- |
| CC(C)[C@@H](CO)Nc1nc(Nc2cc(C3CC3)[nH]n2)nn2cccc12 [Example 24, (2S)-2-((2-((5-cyclopropyl-1H-pyrazol-3-yl)amino)pyrrolo[2,1-ƒ][1,2,4]triazin-4-yl)amino)-3-methyl-1-butanol] | 36 | 64 |
| C[C@H](Nc1nc(Nc2cc(C3CC3)[nH]n2)nn2cccc12)c1ccc(F)cc1 [Example 1, N^2-(5-cyclopropyl-1H-pyrazol-3-yl)-N^4-((1S)-1-(4-fluorophenyl)ethyl)pyrrolo[2,1-f][1,2,4]triazine-2,4-diamine] | 0.3 | 0.8 |
| C[C@H](Nc1nc(Nc2cc(C3CC3)[nH]n2)nn2cccc12)C1CCCCC1 [Example 32, N^4-((1S)-1-cyclohexylethyl)-N^2-(5-cyclopropyl-1H-pyrazol-3-yl)pyrrolo[2,1-ƒ][1,2,4]triazine-2,4-diamine] | 2 | 3 |
| CCCC[C@H](C)Nc1nc(Nc2cc(C3CC3)[nH]n2)nn2cccc12 [Example 21, N^2-(5-cyclopropyl-1H-pyrazol-3-yl)-N^4-((1S)-1-methylpentyl)pyrrolo[2,1-ƒ][1,2,4]triazine-2,4-diamine] | 0.5 | 2 |
